Laboratory results as given in PMC9969401, “Discovery of 2-(3-Benzamidopropanamido)thiazole-5-carboxylate Inhibitors of the Kinesin HSET (KIFC1) and the Development of Cellular Target Engagement Probes” (Journal of Medicinal Chemistry, 2023).

Experiments:
[1] = test system: DLD1 HSET KO cells; experiment: Click probe localization imaging in DLD1 HSET KO cells (negative control); assay type: cell-based, human; details: DLD1 HSET KO, Tz-Cy5 800nM
Description: The Cy-5 tetrazine dye selected for this experiment is not cell-permeable, thus fixation and permeabilization of cells were necessary prior to its addition. Experiments were conducted in DLD1 4N cells and, as a negative control, isogenic 2N DLD1 HSET KO cells in which HSET expression was prevented by the disruption of the HSET gene using CRISPR. Cells were treated first with proTAME for 2 h to accumulate mitotic events, followed by treatment with the TCO probe 40 for 45 min. The live cells were then fixed and permeabilized before treatment with the tetrazine-Cy5 dye and incubation to allow the IEDDA reaction to occur. Additionally, the cells were stained for the endogenous HSET protein using indirect immunofluorescence and imaged to observe the fluorescence from both the TCO probe and antibody-labeled HSET. […] A 3 μM concentration of the probe 40 gave an acceptable signal-to-noise ratio of around 2:1. Even under these optimal conditions, some residual uniform cytoplasmic Cy5 signal was observed within the cells. However, a clear Cy5 decoration of the mitotic spindle was seen, which overlapped with the signal from the antibody-probed endogenous HSET protein (Figures 2A and S6). […] We observed a 14–17-fold increase in signal in DLD1 4N cells treated with 40 relative to tetrazine-Cy5 alone. […] Comparing the intensity of click probe labeling coincident with the mitotic spindle in DLD1 4N cells to that in DLD1 HSET KO cells after both were treated with 40, we observed a twofold higher signal in the former.
Direct target engagement of active inhibitor 36 was measured by calculating its capacity to displace the TCO-containing probe 40. 4N DLD1 cells and DLD1 HSET KO cells (negative control) were plated in 96-well ibidi μ-Clear plates (IB-89626, ibidi). Cells were first treated for 2 h with 8 μM pro-TAME (I-440–01M, R&D system) to accumulate mitotic cells and were then treated with 8 μM MG-132 (S2619, SelleckChem) and 3 μM 40, alone or together with active inhibitor 36 in DMEM media with 1% FBS for 45 min. Cells were then washed three times in DMEM, with the second wash being incubated for 10 min to ensure the optimal reduction of unspecific compound binding. After an additional PBS wash, cells were then fixed in 4% PFA/PBS (15670799, Thermo Scientific) prior to incubation with 400 nM tetraszine-Cy5 (CLK-015-05, Jena Biosciences) in 1.5% FBS/PBS for 10 min at room temperature. Cells were permeabilized by the addition of 0.5% TritonX-100/PBS for 5 min before being stained overnight for Pericentrin (1:1500 ab28144 mouse anti-PCNT, Abcam) and KIFC1 (1:1500 12313S rabbit anti-KIFC1, Cell Signaling Technologies). Secondary antibodies Alexa Fluor 488 donkey antirabbit and Alexa Fluor 555 donkey antimouse (1:1500, A21206 and A31570, respectively, Life Technologies) were added together with 1 μg/mL DAPI (D9542, Sigma) in 1.5% FBS in PBS.
Plates were imaged at 40× using a Zeiss LSM980 confocal microscope with Airyscan 2. The subsequent analysis and quantification were performed using 3D image segmentation with the Arivis4D software. Mitotic cells were segmented by selecting for the highest density (integrated DAPI intensity/total volume), and the mitotic pole areas were segmented using the Pericentrin signal. The signal of the click probe (Cy5) and total KIFC1 (FITC) was measured on the mitotic pole area, and both were normalized to the control condition containing 40 probe alone. The ratio of probe per target (click probe pole integrated intensity signal/KIFC1 pole integrated intensity signal) was used to calculate the occupancy of the probe in the target protein and normalized to the control condition containing 40 probe alone (n > 100 for each replicate, two replicates per concentration point).

[2] = BALB/c mouse plasma stability assay; assay type: in vitro ADME; details: read-out: estimated half-life in plasma
[3] = test system: DLD1 cells (4NCA and 4N); assay type: cell-based; details: human
Description: Inhibition of HSET-mediated clustering was measured using a phenotypic assay measuring the formation of multipolar metaphase spindles in DLD1 cells with (4NCA) or without (4N) centrosome amplification. 4NCA cells were generated by treating 2N DLD1 cells with 2 μΜ DCB for 24 h, washed, and released in growth media for 24 h. 4N and 4NCA DLD1 cells were plated in 96-well ibidi μ-Clear plates (IB-89626, ibidi) with a no. 1.5 polymer coverslip bottom with optimal imaging properties. To enrich the mitotic population, cells were first treated for 3.5 h with 8 μM pro-TAME (I-440-01M, R&D system), an inhibitor of APC/C that transiently arrests cells in metaphase without affecting the structure of the spindle. Following the initial arrest, cells were treated with HSET compounds in the presence of 8 μM MG-132 (S2619, SelleckChem), a proteasome inhibitor that helps to maintain the metaphase arrest, where the number of spindle poles/cell can be optimally quantified by an automated segmentation analysis.
Cells were then fixed in methanol and stained for 3 h for mitotic pole marker aurora A (1:1000 610939 mouse anti-IAK1, BD Biosciences) and phosphorylated histone H3 (1:1500 ab47297 anti-histone H3 pS10, Abcam) as a marker of mitotic cells in 1.5% FBS in PBS. Following primary antibody treatment, cells were incubated with secondary antibodies Alexa Fluor 488 goat antimouse and Alexa Fluor 555 goat antirabbit (1:1500, A11029 and A21429, respectively, Life Technologies) together with 1 μg/mL DAPI (D9542, Sigma) in 1.5% FBS in PBS. Image acquisition was performed at 10× using the GE INCELL 2200 High Content Imaging System (Cytiva) and analyzed using the InCell Investigator software. Mitotic cells were identified by high pHH3 staining and were scored as multipolar if they had more than two mitotic spindle poles. The percentage of multipolar mitoses was calculated by dividing the number of multipolar mitoses by the total of all visible mitoses in one well of a 96-well plate (n > 100 for each replicate, two replicates per concentration point).
3. […]

Structure (SMILES): CCCOC(=O)c1sc(NC(=O)C[C@H](CCCN(C)C(=O)O[C@@H]2CC/C=C/CCC2)NC(=O)c2cccc(-c3noc(C)n3)c2)nc1C [Compound 38, Propyl 2-((S)-6-(((((S,E)-Cyclooct-4-en-1-yl)oxy)carbonyl)(methyl)amino)-3-(3-(5-methyl-1,2,4-oxadiazol-3-yl)benzamido)hexanamido)-4-methylthiazole-5-carboxylate]
- Average Pixel intensity ([1]; 5μM, Panel A: 3 quick washes at room temperature): 799
- Average Pixel intensity ([1]; 5μM, Panel B: 2 quick washes then 1 at 37 °C for 5 minutes): 752
- Average Pixel intensity ([1]; 5μM, Panel C: 2 quick washes then 1 at 37 °C for 10 minutes): 702
- Average Pixel intensity ([1]; 10μM, Panel A: 3 quick washes at room temperature): 1464
- Average Pixel intensity ([1]; 10μM, Panel B: 2 quick washes then 1 at 37 °C for 5 minutes): 1121
- Average Pixel intensity ([1]; 10μM, Panel C: 2 quick washes then 1 at 37 °C for 10 minutes): 803

Structure (SMILES): CCCOC(=O)c1sc(NC(=O)CCNC(=O)c2cccc(-c3noc(C)n3)c2)nc1C [Compound 32, Propyl 4-Methyl-2-(3-(3-(5-methyl-1,2,4-oxadiazol-3-yl)benzamido)propanamido)thiazole-5-carboxylate]
- half-life [2]: 3.58 h
- concentration at which cellular toxicity observed [3]: > 15 µM

Structure (SMILES): CCCOC(=O)c1sc(NC(=O)C[C@H](CCCNC)NC(=O)c2cccc(-c3noc(C)n3)c2)nc1C [Compound 35, Propyl (S)-4-Methyl-2-(3-(3-(5-methyl-1,2,4-oxadiazol-3-yl)benzamido)-6-(methylamino)hexanamido)thiazole-5-carboxylate]
- concentration at which cellular toxicity observed [3]: 60 µM
